`CCCCS(=O)(=O)NC(=O)C[C@H]1O[C@H](c2cccc(OC)c2OC)c2cc(Cl)ccc2N(CC(C)(C)CO)C1=O` [Example 4, (3R,5S)-N-butanesulfonyl-7-chloro-5-(2,3-dimethoxyphenyl)-1-(3-hydroxy-2,2-dimethylpropyl)-2-oxo-1,2,3,5-tetrahydro-4,1-benzoxazepine-3-acetamide] showed a melting point of 123 to 125 °C.

In the case of `COc1cccc([C@H]2O[C@H](CC(=O)NS(=O)(=O)CCCO)C(=O)N(CC(C)(C)CO)c3ccc(Cl)cc32)c1OC` [Example 6, (3R,5S)-N-(3-hydroxypropyl)sulfonyl-7-chloro-5-(2,3-dimethoxyphenyl)-1-(3-hydroxy-2,2-dimethylpropyl)-2-oxo-1,2,3,5-tetrahydro-4,1-benzoxazepine-3-acetamide], the melting point is reported as 133 to 135 °C.

Work on `COc1cccc([C@H]2O[C@H](CC(=O)N[C@H](CCSC)C(=O)O)C(=O)N(CC(C)(C)CO)c3ccc(Cl)cc32)c1OC` [Example 16, N-[[(3R,5S)-7-chloro-5-(2,3-dimethoxyphenyl)-1-(3-hydroxy-2,2-dimethylpropyl)-2-oxo-1,2,3,5-tetrahydro-4,1-benzoxazepin-3-yl]acetyl]-D-methionine] yielded a melting point of 142 to 143 °C.

`COc1cccc([C@H]2O[C@H](CC(=O)NCCc3oc(C(=O)O)cc3C(=O)O)C(=O)N(CC(C)(C)CO)c3ccc(Cl)cc32)c1OC` [Example 28, 5-[2-[[[(3R,5S)-7-chloro-5-(2,3-dimethoxyphenyl)-1(2,2-dimethyl-3-hydroxypropyl)-2-oxo-1,2,3,5-tetrahydro-4,1-benzoxazepin-3-yl]acetyl]amino]ethyl]furan-2,4-dicarboxylic acid] showed a melting point of 155 to 157 °C.

In the case of `COc1cccc([C@H]2O[C@H](CC(=O)NCc3ccc(C(=O)O)o3)C(=O)N(CC(C)(C)CO)c3ccc(Cl)cc32)c1OC` [Example 29, 5-[[[[(3R,5S)-7-chloro-5-(2,3-dimethoxyphenyl)-1-(2,2-dimethyl-3-hydroxypropyl)-2-oxo-1,2,3,5-tetrahydro-4,1-benzoxazepin-3-yl]acetyl]amino]methyl]furan-2-carboxylic acid], the melting point is reported as 128 to 131 °C.

`COc1cccc([C@H]2O[C@H](CC(=O)Nc3ccc(CC(=O)O)cc3)C(=O)N(CC(C)(C)CO)c3ccc(Cl)cc32)c1OC` [Example 31, 4-[[(3R,5S)-7-chloro-5-(2,3-dimethoxyphenyl)-1-(3-hydroxy-2,2-dimethylpropyl)-2-oxo-1,2,3,5-tetrahydro-4,1-benzoxazepin-3-yl]acetyl]aminophenylacetic acid] showed a melting point of 142 to 144 °C.

For `COc1cccc([C@H]2O[C@H](CC(=O)Nc3cccc(C(=O)O)c3C)C(=O)N(CC(C)(C)CO)c3ccc(Cl)cc32)c1OC` [Example 43, 3-[[[(3R,5S)-7-chloro-5-(2,3-dimethoxyphenyl)-1-(3-hydoroxy-2-dimethylpropyl)-2-oxo-1,2,3,5-tetrahydro-4,1-benzoxazepin-3-yl]acetyl]amino]-2-methylbenzoic acid], the melting point was 165 to 168 °C.

In the case of `COc1cccc([C@H]2O[C@H](CC(=O)Nc3cccc(C(=O)O)c3C)C(=O)N(CC(C)(C)COC(C)=O)c3ccc(Cl)cc32)c1OC` [Example 44, 3-[[[(3R,5S)-1-(3-acetoxy-2,2-dimethylpropyl)-7-chloro-5-(2,3-dimethoxyphenyl)-2-oxo-1,2,3,5-tetrahydro-4,1-benzoxazepin-3-yl]acetyl]amino]-2-metylbenzoic acid], the melting point is reported as 139 to 142 °C.

With `COc1cccc([C@H]2O[C@H](CC(=O)Nc3ccc(C(=O)O)cc3C)C(=O)N(CC(C)(C)CO)c3ccc(Cl)cc32)c1OC` [Example 48, 4-[[(3R,5S)-7-chloro-5-(2,3-dimethoxyphenyl)-1-(3-hydroxy-2,2-dimethylpropyl)-2-oxo-1,2,3,5-tetrahydro-4,1-benzoxazepin-3-yl]acetyl]amino-3-methylbenzoic acid] the melting point was 275 to 276 °C.

Work on `CCOc1ccc(CCC(=O)O)cc1NC(=O)C[C@H]1O[C@H](c2cccc(OC)c2OC)c2cc(Cl)ccc2N(CC(C)(C)CO)C1=O` [Example 49, 3-[3-[[[(3R,5S)-7-chloro-5-(2,3-dimethoxyphenyl)-1-(3-hydroxy-2,2-dimethylpropyl)-2-oxo-1,2,3,5-tetrahydro-4,1-benzoxazepin-3-yl]acetyl]amino]-4-ethoxyphenyl]propionic Acid] yielded a melting point of 151 to 153 °C.

With `CCOc1ccc(CCC(=O)O)cc1NC(=O)C[C@H]1O[C@H](c2cccc(OC)c2OC)c2cc(Cl)ccc2N(CC(C)(C)COC(C)=O)C1=O` [Example 50, 3-[3-[[[(3R,5S)-1-(3-acetoxy-2,2-dimethylpropyl)-7-chloro-5-(2,3-dimethoxyphenyl)-2-oxo-1,2,3,5-tetrahydro-4,1-benzoxazepin-3-yl]acetyl]amino]-4-ethoxyphenyl]propionic Acid] the melting point was 175 to 176 °C.

With `COc1cccc([C@H]2O[C@H](CC(=O)Nc3cc(CCC(=O)O)ccc3OC(C)C)C(=O)N(CC(C)(C)CO)c3ccc(Cl)cc32)c1OC` [Example 51, 3-[3-[[[(3R,5S)-7-chloro-5-(2,3-dimethoxyphenyl)-1-(3-hydroxy-2,2-dimethylpropyl)-2-oxo-1,2,3,5-tetrahydro-4,1-benzoxazepin-3-yl]acetyl]amino]-4-isopropoxyphenyl]propionic Acid] the melting point was 133 to 136 °C.

Compound `COc1cccc([C@H]2O[C@H](CC(=O)Nc3cc(CCC(=O)O)ccc3OC(C)C)C(=O)N(CC(C)(C)COC(C)=O)c3ccc(Cl)cc32)c1OC` [Example 52, 3-[3-[[[(3R,5S)-1-(3-acetoxy-2,2-dimethylpropyl)-7-chloro-5-(2,3-dimethoxyphenyl)-2-oxo-1,2,3,5-tetrahydro-4,1-benzoxazepin-3-yl]acetyl]amino]-4-isopropoxyphenyl]propionic Acid] has a melting point of 101 to 103 °C.

`COc1cc(CCC(=O)O)cc(NC(=O)C[C@H]2O[C@H](c3cccc(OC)c3OC)c3cc(Cl)ccc3N(CC(C)(C)CO)C2=O)c1OC` [Example 66, 3-[5-[[[(3R,5S)-7-chloro-5-(2,3-dimethoxyphenyl)-1-(3-hydroxy-2,2-dimethylpropyl)-2-oxo-1,2,3,5-tetrahydro-4,1-benzoxazepin-3-yl]acetyl]amino]-3,4-dimethoxyphenyl]propionic Acid] gave a melting point of 145 to 148 °C.

`COc1cccc([C@H]2O[C@H](CC(=O)Nc3ccc(CCCC(=O)O)cc3)C(=O)N(CC(C)(C)CO)c3ccc(Cl)cc32)c1OC` [Example 68, 4-[4-[[[(3R,5S)-7-chloro-5-(2,3-dimethoxyphenyl)-1-(3-hydroxy-2,2-dimethylpropyl)-2-oxo-1,2,3,5-tetrahydro-4,1-benzoxazepin-3-yl]acetyl]amino]phenyl]butanoic acid] showed a melting point of 194 to 195 °C.

In the case of `COc1cccc([C@H]2O[C@H](CC(=O)NCCCC(=O)O)C(=O)N(CC(C)(C)C)c3ccc(Cl)cc32)c1OC` [Example 70, 4-[[(3R,5S)-7-chloro-5-(2,3-dimethoxyphenyl)-1-neopentyl-2-oxo-1,2,3,5-tetrahydro-4,1-benzoxazepin-3-yl]acetyl]aminobutanoic acid], the melting point is reported as 128 to 130 °C.

Work on `COc1cccc([C@H]2O[C@H](CC(=O)NCc3ccc(C(=O)O)cc3)C(=O)N(CC(C)(C)CO)c3ccc(Cl)cc32)c1OC` [Example 75, 4-[[(3R,5S)-7-Chloro-5-(2,3-dimethoxyphenyl)-1-(3-hydroxy-2,2-dimethylpropyl)-2-oxo-1,2,3,5-tetrahydro-4,1-benzoxazepin-3-yl]acetyl]aminomethylbenzoic acid] yielded a melting point of 143 to 144 °C.

Reference: patent publication US20030078251A1, “Benzoxazepinones and their use as squalene synthase inhibitors” (priority 2000, published 2003)
